Reference: patent US20250114460A1, “NOVEL PLK1 DEGRADATION INDUCING COMPOUND” (UPPTHERA, INC., priority 2021, published 2025)

Columns and labels:
Assay type in all cases: cell-based
PLK1 = target: T1, PLK1 (Homo sapiens, UniProt P53350); assay: Luciferase assay for PLK1 in HeLa LgBit (Plk1-HiBit KI) cell line; conditions: 300 nM compound, luminescence after 9 hours
T1 construct: endogenous in cells; host or cells: HeLa LgBit (Plk1-HiBit KI): HeLa stably expressing LgBit, with a CRISPR/Cas9 knock-in of HiBit at the endogenous PLK1 locus
Outline: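 HeLa cells stably expressing LgBit, with HiBit knocked in at the C-terminus of endogenous Plk1, released from a 24 h 2 mM thymidine block and grown 18 h. Endurazine added, then compound at 300 nM; luminescence tracked in real time, expressed as ratio to DMSO.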

NCI-H526 cell line = assay: Cell viability assay for H526 cell (EZ-Cytox); conditions: Homo sapiens, NCI-H526, 120 h; H526 cells, 5 days, 3000 nM to 0.46 nM
Method: (1) Culture of NCI-H526 Cell Line
(2) Treatment of Compounds of the Present Invention and Method of Cell Viability Assay
After treating the compound to each well to make the total volume of 200 μL, it was cultured in a CO2 incubator (Thermo Fisher Science, Cat. No. 4111) for 5 days.
The absorbance of the completely cultured sample was measured by setting the wavelength of a plate reader (BMG Labtech, CLARIOstar Plus) to […], and was measured after shaking for 3 minutes in a plate reader before measurement.
In Table 3, Activity represents IC50 value of each Exemplary Compound treatment group to H526 cell line (A: <30 nM, B: <50 nM, C: <100 nM, D: <200 nM, E: <400 nM).

MRC-5 cell line = assay: Cell viability assay for MRC-5 cell line (EZ-Cytox)
Method: 4. Cell Viability Assay for MRC-5 Cell Line
(1) Culture of MRC-5 Cell Line
Passage of cultured cells was maintained within P15.
(2) Treatment of Compounds of the Present Invention
Then, it was cultured in 37° C.
(3) Cytotoxicity Experiment
CO2 incubator for 4 hours.

T1 sequence (P53350 whole entry): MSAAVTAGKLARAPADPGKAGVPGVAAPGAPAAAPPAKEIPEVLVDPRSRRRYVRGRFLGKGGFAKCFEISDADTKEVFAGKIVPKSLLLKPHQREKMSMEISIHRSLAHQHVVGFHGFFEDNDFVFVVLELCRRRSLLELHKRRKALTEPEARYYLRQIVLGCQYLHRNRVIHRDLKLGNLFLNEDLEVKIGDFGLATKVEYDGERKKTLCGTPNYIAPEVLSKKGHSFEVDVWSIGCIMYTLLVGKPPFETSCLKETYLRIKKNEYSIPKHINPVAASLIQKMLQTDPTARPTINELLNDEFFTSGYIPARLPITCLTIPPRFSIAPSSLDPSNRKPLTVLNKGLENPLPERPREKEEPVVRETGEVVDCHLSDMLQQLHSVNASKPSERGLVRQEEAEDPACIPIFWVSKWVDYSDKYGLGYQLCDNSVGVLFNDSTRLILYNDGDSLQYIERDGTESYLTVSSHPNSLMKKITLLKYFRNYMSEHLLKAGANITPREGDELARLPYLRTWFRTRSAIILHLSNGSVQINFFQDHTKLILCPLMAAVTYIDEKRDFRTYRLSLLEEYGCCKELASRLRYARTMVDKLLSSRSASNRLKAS

SMILES | Activity: ratio of the luminescense value of each Exemplary Compound treatment group to DMSO treatment group (PLK1) | IC50 (NCI-H526 cell line) | cytotoxicity in normal cell line (MRC-5 cell line; MRC-5, in words) | IC50 (MRC-5 cell line; Homo sapiens, MRC5, 120 h, MRC-5 normal cell line, 5 days, 10000 nM to 1.52 nM, N.D. = no cytotoxicity until 10 μM, read-out: Activity: IC50 value of Exemplary Compound to MRC-5 cell line)
COc1cc(C(=O)NC2CCCN(C(=O)N3CCN(c4cccc5c4C(=O)N(C4CCC(=O)NC4=O)C5=O)CC3)C2)ccc1Nc1ncc2c(n1)N(C1CCCC1)CC(F)(F)C(=O)N2C (stereo not drawn) [Compound 145, 4-((9-cyclopentyl-7,7-difluoro-5-methyl-6-oxo-6,7,8,9-tetrahydro-5H-pyrimido[4,5-b][1,4]diazepin-2-yl)amino)-N-(1-(4-(2-(2,6-dioxopiperidin-3-yl)-1,3-dioxoisoindolin-4-yl)piperazine-1-carbonyl)piperidin-3-yl)-3-methoxybenzamide] | +++ (+++: <0.3) | < 50 nM |  | 
COc1cc(C(=O)N2CCC(CCCN3CCN(c4ccc5c(c4)C(=O)N(C4CCC(=O)NC4=O)C5=O)CC3)CC2)ccc1Nc1ncc2c(n1)N(C1CCCC1)CC(F)(F)C(=O)N2C (stereo not drawn) [Compound 99, 5-(4-(3-(1-(4-((9-cyclopentyl-7,7-difluoro-5-methyl-6-oxo-6,7,8,9-tetrahydro-5H-pyrimido[4,5-b][1,4]diazepin-2-yl)amino)-3-methoxybenzoyl)piperidin-4-yl)propyl)piperazin-1-yl)-2-(2,6-dioxopiperidin-3-yl)isoindoline-1,3-dione] | ++ (++<0.6) | < 400 nM |  | 
COc1cc(N2CCC(CN3CCN(c4cccc5c4C(=O)N(C4CCC(=O)NC4=O)C5=O)CC3)CC2)c(F)cc1Nc1ncc2c(n1)N(C1CCCC1)CC(F)(F)C(=O)N2C (stereo not drawn) [Compound 103, 4-(4-((1-(4-((9-cyclopentyl-7,7-difluoro-5-methyl-6-oxo-6,7,8,9-tetrahydro-5H-pyrimido[4,5-b][1,4]diazepin-2-yl)amino)-2-fluoro-5-methoxyphenyl)piperidin-4-yl)methyl)piperazin-1-yl)-2-(2,6-dioxopiperidin-3-yl)isoindoline-1,3-dione] | ++ (++<0.6) | < 200 nM |  | 
CC[C@@H]1C(=O)N(C)c2cnc(Nc3ccc(C(=O)NCCOCCOCCNc4cccc5c4C(=O)N(C4CCC(=O)NC4=O)C5=O)cc3OC)nc2N1C1CCCC1 (stereo partly drawn) [Comparative Compound 1, reference compound] |  |  | exhibited a high level of cytotoxicity in normal cell line | 
CN1C(=O)C(F)(F)CN(C2CCCC2)c2nc(Nc3ccc(C(=O)NC4CCN(C(=O)CCCNc5cccc6c5C(=O)N(C5CCC(=O)NC5=O)C6=O)CC4)cc3OC(F)(F)F)ncc21 (stereo not drawn) [Compound 28, 4-((9-cyclopentyl-7,7-difluoro-5-methyl-6-oxo-6,7,8,9-tetrahydro-5H-pyrimido[4,5-b][1,4]diazepin-2-yl)amino)-N-(1-(4-((2-(2,6-dioxopiperidin-3-yl)-1,3-dioxoisoindolin-4-yl)amino)butanoyl)piperidin-4-yl)-3-(trifluoromethoxy)benzamide] | ++ (++<0.6) |  |  | > 10000 nM
COc1cc(C(=O)N2CCN(CCN3CCN(c4cccc5c4C(=O)N(C4CCC(=O)NC4=O)C5=O)CC3)CC2)ccc1Nc1ncc2c(n1)N(C1CCCC1)CC(F)(F)C(=O)N2C (stereo not drawn) [Compound 86, 4-(4-(2-(4-(4-((9-cyclopentyl-7,7-difluoro-5-methyl-6-oxo-6,7,8,9-tetrahydro-5H-pyrimido[4,5-b][1,4]diazepin-2-yl)amino)-3-methoxybenzoyl)piperazin-1-yl)ethyl)piperazin-1-yl)-2-(2,6-dioxopiperidin-3-yl)isoindoline-1,3-dione] | ++ (++<0.6) | < 400 nM |  | 
COc1cc(C(=O)NC2CCN(C(=O)COc3cccc4c3C(=O)N(C3CCC(=O)NC3=O)C4=O)CC2)c(F)cc1Nc1ncc2c(n1)N(C1CCCC1)CC(F)(F)C(=O)N2C (stereo not drawn) [Compound 37, 4-((9-cyclopentyl-7,7-difluoro-5-methyl-6-oxo-6,7,8,9-tetrahydro-5H-pyrimido[4,5-b][1,4]diazepin-2-yl)amino)-N-(1-(2-((2-(2,6-dioxopiperidin-3-yl)-1,3-dioxoisoindolin-4-yl)oxy)acetyl)piperidin-4-yl)-2-fluoro-5-methoxybenzamide] | ++ (++<0.6) | < 400 nM |  | 
COc1cc(C(=O)NC2CCCN(C(=O)CN3CCN(c4cccc5c4C(=O)N(C4CCC(=O)NC4=O)C5=O)CC3)C2)ccc1Nc1ncc2c(n1)N(C1CCCC1)CC(F)(F)C(=O)N2C (stereo not drawn) [Compound 122, 4-((9-cyclopentyl-7,7-difluoro-5-methyl-6-oxo-6,7,8,9-tetrahydro-5H-pyrimido[4,5-b][1,4]diazepin-2-yl)amino)-N-(1-(2-(4-(2-(2,6-dioxopiperidin-3-yl)-1,3-dioxoisoindolin-4-yl)piperazin-1-yl)acetyl)piperidin-3-yl)-3-methoxybenzamide] | +++ (+++: <0.3) | < 30 nM |  | 
COc1cc(C(=O)NCC2CCN(CC3CCN(c4cccc5c4C(=O)N(C4CCC(=O)NC4=O)C5=O)CC3)CC2)ccc1Nc1ncc2c(n1)N(C1CCCC1)CC(F)(F)C(=O)N2C (stereo not drawn) [Compound 53, 4-((9-cyclopentyl-7,7-difluoro-5-methyl-6-oxo-6,7,8,9-tetrahydro-5H-pyrimido[4,5-b][1,4]diazepin-2-yl)amino)-N-((1-((1-(2-(2,6-dioxopiperidin-3-yl)-1,3-dioxoisoindolin-4-yl)piperidin-4-yl)methyl)piperidin-4-yl)methyl)-3-methoxybenzamide] | +++ (+++: <0.3) | < 50 nM |  | 

Continued, in another order:

Activity: ratio of the luminescense value of each Exemplary Compound treatment group to DMSO treatment group (PLK1) | SMILES | IC50 (NCI-H526 cell line) | cytotoxicity in normal cell line (MRC-5 cell line; MRC-5, in words) | IC50 (MRC-5 cell line; Homo sapiens, MRC5, 120 h, MRC-5 normal cell line, 5 days, 10000 nM to 1.52 nM, N.D. = no cytotoxicity until 10 μM, read-out: Activity: IC50 value of Exemplary Compound to MRC-5 cell line)
++ (++<0.6) | COc1cc(C(=O)N2CCC(N3CCN(CCOCCCNc4cccc5c4C(=O)N(C4CCC(=O)NC4=O)C5=O)CC3)CC2)c(F)cc1Nc1ncc2c(n1)N(C1CCCC1)CC(F)(F)C(=O)N2C (stereo not drawn) [Compound 190, 4-((3-(2-(4-(1-(4-((9-cyclopentyl-7,7-difluoro-5-methyl-6-oxo-6,7,8,9-tetrahydro-5H-pyrimido[4,5-b][1,4]diazepin-2-yl)amino)-2-fluoro-5-methoxybenzoyl)piperidin-4-yl)piperazin-1-yl)ethoxy)propyl)amino)-2-(2,6-dioxopiperidin-3-yl)isoindoline-1,3-dione] | < 30 nM |  | 
++ (++<0.6) | COc1cc(C(=O)N2CCC(CN3CCN(c4ccc5c(c4)C(=O)N(C4CCC(=O)NC4=O)C5=O)CC3)CC2)ccc1Nc1ncc2c(n1)N(C1CCCC1)CC(F)(F)C(=O)N2C (stereo not drawn) [Compound 97, 5-(4-((1-(4-((9-cyclopentyl-7,7-difluoro-5-methyl-6-oxo-6,7,8,9-tetrahydro-5H-pyrimido[4,5-b][1,4]diazepin-2-yl)amino)-3-methoxybenzoyl)piperidin-4-yl)methyl)piperazin-1-yl)-2-(2,6-dioxopiperidin-3-yl)isoindoline-1,3-dione] | < 400 nM |  | 
++ (++<0.6) | COc1cc(C(=O)NC2CCN(C(=O)CCCNc3cccc4c3C(=O)N(C3CCC(=O)NC3=O)C4=O)CC2)c(F)cc1Nc1ncc2c(n1)N(C(C)C)CC(F)(F)C(=O)N2C (stereo not drawn) [Compound 33, 4-((7,7-difluoro-9-isopropyl-5-methyl-6-oxo-6,7,8,9-tetrahydro-5H-pyrimido[4,5-b][1,4]diazepin-2-yl)amino)-N-(1-(4-((2-(2,6-dioxopiperidin-3-yl)-1,3-dioxoisoindolin-4-yl)amino)butanoyl)piperidin-4-yl)-2-fluoro-5-methoxybenzamide] | < 200 nM |  | 
+++ (+++: <0.3) | COc1cc(C(=O)NC2CCN(CCOc3cccc4c3C(=O)N(C3CCC(=O)NC3=O)C4=O)CC2)c(Cl)cc1Nc1ncc2c(n1)N(C1CCCC1)CC(F)(F)C(=O)N2C (stereo not drawn) [Compound 6, 2-chloro-4-((9-cyclopentyl-7,7-difluoro-5-methyl-6-oxo-6,7,8,9-tetrahydro-5H-pyrimido[4,5-b][1,4]diazepin-2-yl)amino)-N-(1-(2-((2-(2,6-dioxopiperidin-3-yl)-1,3-dioxoisoindolin-4-yl)oxy)ethyl)piperidin-4-yl)-5-methoxybenzamide] | < 400 nM |  | 
++ (++<0.6) | COc1cc(C(=O)NN2CCN(C3CCN(c4cccc5c4C(=O)N(C4CCC(=O)NC4=O)C5=O)C3)CC2)ccc1Nc1ncc2c(n1)N(C(C)C)CC(F)(F)C(=O)N2C (stereo not drawn) [Compound 52, 4-((7,7-difluoro-9-isopropyl-5-methyl-6-oxo-6,7,8,9-tetrahydro-5H-pyrimido[4,5-b][1,4]diazepin-2-yl)amino)-N-(4-(1-(2-(2,6-dioxopiperidin-3-yl)-1,3-dioxoisoindolin-4-yl)pyrrolidin-3-yl)piperazin-1-yl)-3-methoxybenzamide] | < 30 nM |  | 
